Patent US20260109708A1, “COMPOUNDS AND COMPOSITIONS USEFUL AS DEGRADERS OF MK2 KINASE” (Celgene Corporation, priority 2023, published 2026)

molecular target: T1, p38a activated, mitogen-activated protein kinase-activated protein kinase 2 (MAPKAP-K2 or MK2) enzyme (Homo sapiens, UniProt P49137); assay: MK2 OMNIA biochemical assay (AssayQuant continuous-read kinase assay); settings: [MK-2]=0.05 nM, [ATP]=100 μM, [AQT0425]=10 μM
T1 construct: purchased Invitrogen PV3317
Excerpt: Example 56.2. Mitogen-Activated Protein Kinase-Activated Protein Kinase 2 AssayQuant Technologies® Assay for Compound Potency Assessment (MK2 OMNIA Biochemical Assay)
The protocol below describes a continuous-read kinase assay optimized to measure potency of compounds against p38a activated, mitogen-activated protein kinase-activated protein kinase 2 (MAPKAP-K2 or MK2) enzyme.
A 1.25× stock solution of MK2 (PV3317, from Invitrogen) and a 5× stock solution of ATP and Sox conjugated peptide substrate, AQT0425 (CSKS-AQT0425B, from AssayQuant Technologies), were prepared in 1× kinase reaction buffer consisting of 50 mM HEPES, pH 7.5, 0.01% Brij-35, 0.55 mM EGTA, 10 mM MgCl2 and 1 mM DTT.
10 μL of the ATP and substrate solution mix was added to a Coming (3574) 384-well, white, non-binding surface microtiter plate containing 0.5 μL of serially diluted test compounds prepared in DMSO. The reactions were started with the addition of 40 μL of the enzyme solution and monitored every 71 seconds for 240 min at kex 360/λem 485 in a Synergy H4 plate reader from BioTek at room temperature.
The initial linear portions of the net progress curves were fit according to a linear equation to yield the slope and percentage of inhibition (% inhibition) at each compound concentration. The net progress curves obtained during the entirety of reactions were also fit according to an ascending single-exponential equation (Eq. 1) to yield Vobs values at each compound concentration. Plots of % Inhibition versus degrader concentrations were fit according to a dose-response equation (Eq. 2) to generate IC50 and Hill slope values while plots of Vobs versus degrader concentration were fit according to Equation 3 (Eq. 3) to generate apparent Kinact values using the GraphPad PRISM software.
where F is the fluorescence intensity from the plate reader, V0 is a constant reflecting the relationship between the instrument readout and product concentration, t is time, e is Euler's number, and Vobs is the observed inactivation rate constant.
where % Inhibition is percentage of inhibition, IC50 is half maximal inhibitory concentration, [I] is the degraders concentration, and n is the Hill slope.
where kobs is the observed inactivation rate constant, Kinact is the apparent inactivation rate constant, K1 is the apparent inhibition constant, and [I] is the degrader concentration.

T1 sequence (P49137 whole entry): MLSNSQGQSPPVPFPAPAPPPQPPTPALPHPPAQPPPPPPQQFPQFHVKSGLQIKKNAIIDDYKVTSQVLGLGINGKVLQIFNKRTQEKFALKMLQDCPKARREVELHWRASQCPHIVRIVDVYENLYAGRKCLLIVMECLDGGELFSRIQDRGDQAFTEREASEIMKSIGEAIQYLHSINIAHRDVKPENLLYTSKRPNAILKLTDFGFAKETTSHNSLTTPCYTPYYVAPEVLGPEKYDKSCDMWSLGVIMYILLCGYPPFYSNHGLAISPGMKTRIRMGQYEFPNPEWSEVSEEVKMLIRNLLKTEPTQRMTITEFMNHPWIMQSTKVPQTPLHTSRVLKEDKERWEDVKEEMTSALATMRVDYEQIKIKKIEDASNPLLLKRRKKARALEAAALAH

Row | SMILES | IC50
1 | C[C@@H]1CNc2c(sc3ccc4nc(-c5ccc(N6CCC(CCN7CCN(c8ccc(C9CCC(=O)NC9=O)cc8)CC7)CC6)cc5)ccc4c23)C(=O)N1 (stereo partly drawn) [Ex 39, 3-(4-(4-(2-(1-(4-((R)-10-methyl-8-oxo-9,10,11,12-tetrahydro-8H-[1,4]diazepino[5′,6′:4,5]thieno[3,2-f]quinolin-3-yl)phenyl)piperidin-4-yl)ethyl)piperazin-1-yl)phenyl)piperidine-2,6-dione] | 0.151 to 0.5 µM
2 | C[C@@H]1CNc2c(sc3ccc4nc(-c5ccc(C6CCN(CCN7CCN(c8ccc(C9CCC(=O)NC9=O)cc8)CC7)CC6)cc5)ccc4c23)C(=O)N1 (stereo partly drawn) [Ex 27, 3-(4-(4-(2-(4-(4-((R)-10-Methyl-8-oxo-9,10,11,12-tetrahydro-8H-[1,4]diazepino[5′,6′:4,5]thieno[3,2-f]quinolin-3-yl)phenyl)piperidin-1-yl)ethyl)piperazin-1-yl)phenyl)piperidine-2,6-dione] | < 0.15 µM
3 | C[C@@H]1CNc2c(sc3ccc4nc(-c5cccc(C6CCN(CCN7CCN(c8ccc9c(C%10CCC(=O)NC%10=O)nn(C)c9c8)CC7)CC6)c5)ccc4c23)C(=O)N1 (stereo partly drawn) [Ex 19, 3-(1-Methyl-6-(4-(2-(4-(3-((R)-10-methyl-8-oxo-9,10,11,12-tetrahydro-8H-[1,4]diazepino[5′,6′:4,5]thieno[3,2-f]quinolin-3-yl)phenyl)piperidin-1-yl)ethyl)piperazin-1-yl)-1H-indazol-3-yl)piperidine-2,6-dione] | < 0.15 µM
4 | C[C@@H]1CNc2c(sc3ccc4nc(-c5ccc(N6CCC(CN7CCN(c8ccc(C9CCC(=O)NC9=O)cc8)CC7)CC6)cc5)ccc4c23)C(=O)N1 (stereo partly drawn) [Ex 38, 3-(4-(4-((1-(4-((R)-10-Methyl-8-oxo-9,10,11,12-tetrahydro-8H-[1,4]diazepino[5′,6′:4,5]thieno[3,2-f]quinolin-3-yl)phenyl)piperidin-4-yl)methyl)piperazin-1-yl)phenyl)piperidine-2,6-dione] | 0.151 to 0.5 µM
5 | C[C@@H]1CNc2c(sc3ccc4nc(-c5cnn(C6CCN(CCN7CCN(c8ccc(C9CCC(=O)NC9=O)cc8)CC7)CC6)c5)ccc4c23)C(=O)N1 (stereo partly drawn) [Ex 43, 3-(4-(4-(2-(4-(4-((R)-10-Methyl-8-oxo-9,10,11,12-tetrahydro-8H-[1,4]diazepino[5′,6′:4,5]thieno[3,2-f]quinolin-3-yl)-1H-pyrazol-1-yl)piperidin-1-yl)ethyl)piperazin-1-yl)phenyl)piperidine-2,6-dione] | < 0.15 µM
6 | C[C@@H]1CNc2c(sc3ccc4nc(-c5cccc(N6CCN(C(=O)C(=O)N7CCN(c8ccc(C9CCC(=O)NC9=O)cc8)CC7)CC6)c5)ccc4c23)C(=O)N1 (stereo partly drawn) [Ex 13, 3-(4-(4-(2-(4-(3-((R)-10-Methyl-8-oxo-9,10,11,12-tetrahydro-8H-[1,4]diazepino[5′,6′:4,5]thieno[3,2-f]quinolin-3-yl)phenyl)piperazin-1-yl)-2-oxoacetyl)piperazin-1-yl)phenyl)piperidine-2,6-dione] | < 0.15 µM
7 | C[C@@H]1CNc2c(sc3ccc4nc(-c5ccc(C6CCN(CCN7CCN(c8ccc9c(C%10CCC(=O)NC%10=O)nn(C)c9c8)CC7)CC6)cc5)ccc4c23)C(=O)N1 (stereo partly drawn) [Ex 28, 3-(1-Methyl-6-(4-(2-(4-(4-((R)-10-methyl-8-oxo-9,10,11,12-tetrahydro-8H-[1,4]diazepino[5′,6′:4,5]thieno[3,2-f]quinolin-3-yl)phenyl)piperidin-1-yl)ethyl)piperazin-1-yl)-1H-indazol-3-yl)piperidine-2,6-dione] | < 0.15 µM
8 | C[C@@H]1CNc2c(sc3ccc4nc(-c5ccc(C(=O)N[C@H]6C[C@H](CN7CCN(c8ccc9c(C%10CCC(=O)NC%10=O)nn(C)c9c8)CC7)C6)cc5F)ccc4c23)C(=O)N1 (stereo partly drawn) [Ex 3, N-((trans)-3-((4-(3-(2,6-Dioxopiperidin-3-yl)-1-methyl-1H-indazol-6-yl)piperazin-1-yl)methyl)cyclobutyl)-3-fluoro-4-((R)-10-methyl-8-oxo-9,10,11,12-tetrahydro-8H-[1,4]diazepino[5′,6′:4,5]thieno[3,2-f]quinolin-3-yl)benzamide] | < 0.15 µM
9 | C[C@@H]1CNc2c(sc3ccc4nc(-c5ccc(N6CCN(CCN7CCN(c8ccc(C9CCC(=O)NC9=O)cc8)CC7)CC6)cc5)ccc4c23)C(=O)N1 (stereo partly drawn) [Ex 22, 3-(4-(4-(2-(4-(4-((R)-10-Methyl-8-oxo-9,10,11,12-tetrahydro-8H-[1,4]diazepino[5′,6′:4,5]thieno[3,2-f]quinolin-3-yl)phenyl)piperazin-1-yl)ethyl)piperazin-1-yl)phenyl)piperidine-2,6-dione] | 0.151 to 0.5 µM
10 | C[C@@H]1COc2c(sc3ccc4nc(-c5ccc(C6CCN(CCN7CCN(c8ccc(C9CCC(=O)NC9=O)cc8)CC7)CC6)cc5)ccc4c23)C(=O)N1 (stereo partly drawn) [Ex 32, 3-(4-(4-(2-(4-(4-((R)-10-Methyl-8-oxo-8,9,10,11-tetrahydro-[1,4]oxazepino[7′,6′:4,5]thieno[3,2-f]quinolin-3-yl)phenyl)piperidin-1-yl)ethyl)piperazin-1-yl)phenyl)piperidine-2,6-dione] | 0.151 to 0.5 µM
11 | C[C@@H]1CNc2c(sc3ccc4nc(-c5cccc(N6CCN(CCN7CCN(c8ccc(C9CCC(=O)NC9=O)cc8)CC7)CC6)c5)ccc4c23)C(=O)N1 (stereo partly drawn) [Ex 11, 3-(4-(4-(2-(4-(3-((R)-10-Methyl-8-oxo-9,10,11,12-tetrahydro-8H-[1,4]diazepino[5′,6′:4,5]thieno[3,2-f]quinolin-3-yl)phenyl)piperazin-1-yl)ethyl)piperazin-1-yl)phenyl)piperidine-2,6-dione] | < 0.15 µM
12 | C[C@@H]1CNc2c(sc3ccc4nc(-c5ccc(C(=O)N[C@H]6CC[C@H](CCN7CCN(c8ccc9c(C%10CCC(=O)NC%10=O)nn(C)c9c8)CC7)CC6)cc5F)ccc4c23)C(=O)N1 (stereo partly drawn) [Ex 6, N-(trans-4-(2-(4-(3-(2,6-Dioxopiperidin-3-yl)-1-methyl-1H-indazol-6-yl)piperazin-1-yl)ethyl)cyclohexyl)-3-fluoro-4-((R)-10-methyl-8-oxo-9,10,11,12-tetrahydro-8H-[1,4]diazepino[5′,6′:4,5]thieno[3,2-f]quinolin-3-yl)benzamide] | < 0.15 µM
13 | C[C@@H]1CNc2c(sc3ccc4nc(-c5ccc(N6CCN(CCN7CCC(c8ccc(C9CCC(=O)NC9=O)cc8)CC7)CC6)cc5)ccc4c23)C(=O)N1 (stereo partly drawn) [Ex 20, 3-(4-(1-(2-(4-(4-((R)-10-Methyl-8-oxo-9,10,11,12-tetrahydro-8H-[1,4]diazepino[5′,6′:4,5]thieno[3,2-f]quinolin-3-yl)phenyl)piperazin-1-yl)ethyl)piperidin-4-yl)phenyl)piperidine-2,6-dione] | < 0.15 µM
14 | C[C@@H]1CNc2c(sc3ccc4nc(-c5cnn(C6CCN(CCN7CCN(c8ccc9c(C%10CCC(=O)NC%10=O)nn(C)c9c8)CC7)CC6)c5)ccc4c23)C(=O)N1 (stereo partly drawn) [Ex 44, 3-(1-Methyl-6-(4-(2-(4-(4-((R)-10-methyl-8-oxo-9,10,11,12-tetrahydro-8H-[1,4]diazepino[5′,6′:4,5]thieno[3,2-f]quinolin-3-yl)-1H-pyrazol-1-yl)piperidin-1-yl)ethyl)piperazin-1-yl)-1H-indazol-3-yl)piperidine-2,6-dione] | < 0.15 µM
15 | C[C@@H]1CNc2c(sc3ccc4nc(-c5cn(C6CCN(CCN7CCN(c8ccc9c(C%10CCC(=O)NC%10=O)nn(C)c9c8)CC7)CC6)nn5)ccc4c23)C(=O)N1 (stereo partly drawn) [Ex 50, 3-(1-Methyl-6-(4-(2-(4-(4-((R)-10-methyl-8-oxo-9,10,11,12-tetrahydro-8H-[1,4]diazepino[5′,6′:4,5]thieno[3,2-f]quinolin-3-yl)-1H-1,2,3-triazol-1-yl)piperidin-1-yl)ethyl)piperazin-1-yl)-1H-indazol-3-yl)piperidine-2,6-dione] | < 0.15 µM
16 | C[C@@H]1CNc2c(sc3ccc4nc(-c5cccc(N6CCN(C(=O)C(=O)N7CCN(c8ccc9c(C%10CCC(=O)NC%10=O)nn(C)c9c8)CC7)CC6)c5)ccc4c23)C(=O)N1 (stereo partly drawn) [Ex 14, 3-(1-Methyl-6-(4-(2-(4-(3-((R)-10-methyl-8-oxo-9,10,11,12-tetrahydro-8H-[1,4]diazepino[5′,6′:4,5]thieno[3,2-f]quinolin-3-yl)phenyl)piperazin-1-yl)-2-oxoacetyl)piperazin-1-yl)-1H-indazol-3-yl)piperidine-2,6-dione] | < 0.15 µM
17 | C[C@@H]1CNc2c(sc3ccc4nc(-n5cc(C6CN(CCN7CCC(c8ccc(C9CCC(=O)NC9=O)cc8)CC7)C6)nn5)ccc4c23)C(=O)N1 (stereo partly drawn) [Ex 54, 3-(4-(1-(2-(3-(1-((R)-10-Methyl-8-oxo-9,10,11,12-tetrahydro-8H-[1,4]diazepino[5′,6′:4,5]thieno[3,2-f]quinolin-3-yl)-1H-1,2,3-triazol-4-yl)azetidin-1-yl)ethyl)piperidin-4-yl)phenyl)piperidine-2,6-dione] | < 0.15 µM
